Activity calls are given as the source filed them.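 How the source made its calls: active means compounds giving half or more protection of infected cells from virus-caused growth loss, again on retest; inactive means the rest.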 Where a SMILES comes first, the peptide text is derived from it.
Tested on: CEM cells HIV-1 protection, formazan growth assay
Experiment: NCI AIDS Antiviral Assay
Settings: for IC50: measured here: growth of uninfected CEM cells
Summary of the method: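 CEM (human) cells, HIV-1 infected vs uninfected, 5-point dosing, formazan growth read-out. Retest threshold 50% protection.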

Row | SMILES | EC50 [µM] | IC50 [µM] | outcome
1 | O=[N+]([O-])c1cc[n+]([O-])cc1 | > 1410 | 8.91 | 
2 | CC1CN1c1c(C(=O)/C=C/c2ccc(Cl)cc2)c(-c2ccccc2)nn(C)c1=O (stereo not given) | > 8.91 | > 8.91 | 
3 | Cc1ccc(-n2cc(-c3ccc(Cl)cc3)c3c(=N)n(N)cnc32)cc1 | > 100 | 13.5 | 
4 | COC(=O)c1cc(C(=CCC2OCCO2)c2cc(Cl)c(OC)c(C(=O)OC)c2)cc(Cl)c1OC | > 52.5 | 38.9 | 
5 | O=c1cc(CC(O)(C(F)(F)Cl)C(F)(F)Cl)[nH]n1-c1ccccc1 | > 200 | 117 | 
6 | COc1ccc2[nH]c3c(=O)[nH]ncc3c2c1 |  |  | inactive
7 | CCN(CC)CC1CCCCCCCCCCC1=O (stereo not given) |  |  | inactive
8 | [N-]=[N+]=N/C1=C/CCCCC(=O)C1 |  |  | inactive
9 | O=C(CN1CCCCC1)c1ccc2c(c1)Cc1cc(C(=O)CN3CCCCC3)ccc1O2 | > 70.8 | 33.1 | 
10 | COc1cccc(CCn2c(N)c(-c3cc(Cl)cc(Cl)c3)c3ccc([N+](=O)[O-])cc3c2=O)c1 | > 200 | 3.39 | 
11 | CC(C)(C)c1nc2c(o1)C(=Nc1ccc(F)cc1)c1ccccc1C2=O |  |  | inactive
12 | COc1cc(/C=C2/SC(c3ccccc3)N(c3cc(Cl)ccc3Cl)C2=O)cc(OC)c1OC (stereo not given) | > 200 | 70.8 | 
13 | COc1ccc(N2CC(=O)N(C(=O)COc3ccc(OCC(=O)N4C(=O)CN(c5ccc(OC)cc5)C4=S)cc3)C2=S)cc1 | > 200 | 87.1 | 
14 | CC(=O)Oc1cccc2c1ccc1nonc12 | > 174 | 28.2 | 
15 | COC(=O)c1c2c(cc3c1CC1(Cc4cc5c(c(C(C)=O)c4C1)CCC5)C3)CCC2 (stereo not given) | > 6.46 | > 6.46 | 
16 | Cc1ccc(N2CC(=O)N3CCCC(C)N3C(=O)C2)cc1 (stereo not given) | > 200 | 174 | 
17 | Cc1oc(-c2cccc(F)c2)nc1C(N)=O | > 200 | > 200 | 

Row | SMILES | EC50 [µM] | IC50 [µM] | outcome
18 | COC(=O)C1(Cc2ccc3c(c2)CCC3)Cc2cc3c(cc2C1=O)CCC3 (stereo not given) | > 200 | 30.9 | 
19 | CCC1=CC2CC(C(=O)OC)C1(N(C)C)C2=O (stereo not given) |  |  | inactive
20 | CCOC(=O)COc1ccc(/C=C/C(=O)c2ccc(OC)cc2)cc1 | > 200 | 11.2 | 
21 | CCOC(=O)NN(C(=O)OCC)C(C(=O)c1ccccc1)N(NC(=O)OCC)C(=O)OCC | > 200 | > 200 | 
22 | CC(NC(=O)C(=O)N/N=C1\CC(c2ccccc2)Oc2ccccc21)c1ccccc1 (stereo not given) |  |  | inactive
23 | Cc1ccc(C2OC(COCc3ccc(Cl)cc3)C(OCc3ccc(Cl)cc3)C2O)cc1 (stereo not given) |  |  | inactive
24 | CCC(C)C(NC(=O)C1CCCN1C(=O)C(Cc1ccc(O)cc1)NC(=O)C(CC(N)=O)NC(=O)C(CCC(N)=O)NC(=O)C(CO)NC(=O)C(N)C(C)C)C(=O)NC(CC(C)C)C(=O)NC(CCC(N)=O)C(N)=O (stereo not given) (H-VSQNYPILQ-NH2; configuration not given here) | > 58.9 | > 58.9 | 
25 | N=C(OC1CCCCC1)N1CCOCC1 | > 200 | > 200 | 
26 | CCOC(=O)C1C(c2ccc([N+](=O)[O-])cc2)NC(c2ccc([N+](=O)[O-])cc2)C(C(=O)OC)S1(=O)=O (stereo not given) | > 3.98 | > 3.98 | 
27 | Nc1cc([N+](=O)[O-])ccc1N1C(=O)CCCC1=O | > 200 | > 200 | 
28 | CC(C)[Si]([Se]c1ccccc1)(C(C)C)C(C)C | > 21.9 | > 21.9 | 
29 | CCCCNC(=S)/C(C#N)=C1\Nc2ccccc2O1 | > 200 | 32.4 | 
30 | Cc1ccc(/C=C/C(=O)Oc2ccc(/C=C3\CCC/C(=C\c4ccc(OC(=O)/C=C/c5ccc(C)cc5)cc4)C3=O)cc2)cc1 | > 100 | > 100 | 
31 | O=C(NN1C(=O)C(Cl)C1c1cccc(O)c1)c1ccccc1O (stereo not given) | > 151 | 141 | 
32 | OCC1C=CC(n2cnc3c(Cl)ncnc32)CC1 (stereo not given) | > 200 | 34.7 | 
33 | CCCCCC(/C=N/NC(N)=S)C(O)(C(F)(F)F)C(F)(F)F (stereo not given) | > 200 | 30.2 | 
34 | CC(NC(=O)N(C)C)NC(=O)N(C)C |  |  | inactive
